{"source": "patent US20130028987A1", "about": "“Method of treating psoriasis” (priority 2011, published 2013)", "system": "phosphorylase kinase", "assay": "inhibition of phosphorylase kinase activity", "format": "biochemical", "details": "findings of the instant inventor; no experiment described", "data": [{"smiles": "COc1cc(/C=C/C(=O)CC(=O)/C=C/c2ccc(O)c(OC)c2)ccc1O", "note": "[Curcumin]", "values": [{"measurement": "inhibition of phosphorylase kinase", "value": "selective and non-competitive inhibitor of phosphorylase kinase"}]}]}
